# Data reported in patent US7618968B2, “Aryl triazines as LPAAT-β inhibitors and uses thereof” (Cell Therapeutics, Inc., priority 2001, dated 2009).
# pIC50: −log10 of the molar value.
# Biological target: T1, LPAAT-β (Homo sapiens, UniProt O15120)
# T1 construct: the full-length human LPAAT-β cDNA was amplified by PCR; poly-histidine tag (from pFastBac HTc vector) (N); made in house; host or cells: Sf9 insect cells (baculovirus); membrane fraction used
# T1 sequence (O15120 24-278): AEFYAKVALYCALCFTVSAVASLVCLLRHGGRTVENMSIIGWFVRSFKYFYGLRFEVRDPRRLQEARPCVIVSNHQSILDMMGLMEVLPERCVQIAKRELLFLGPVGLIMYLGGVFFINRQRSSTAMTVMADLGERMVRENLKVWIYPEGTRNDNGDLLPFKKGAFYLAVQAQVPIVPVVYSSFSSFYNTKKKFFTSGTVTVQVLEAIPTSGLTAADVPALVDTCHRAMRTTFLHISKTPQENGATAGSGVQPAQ
# Test: LPAAT-β cell-free assay (colorimetric primary screen, radiometric/fluorescent TLC secondary assay)
# Type: biochemical
# Conditions: Sf9 cell membrane overexpressing LPAAT-β
# From the text: A. Production of Recombinant LPAAT-β for Assays
# For the construction of Baculovirus expression vectors, the full-length human LPAAT-β cDNA was amplified by PCR from the DNA template pCE9.LPAAT-β (West et al., DNA Cell Biol. 16:691-701 (1997)) using the primers 5′-[…] […] […] […]-3′ (olpb1F; SEQ ID NO:1) and 5′-[…] […] […]-3′ (olpb1R; SEQ ID NO:2). The ˜870 bp fragment generated was reamplified by PCR using the primers 5′[…] […] […] […] ATC-3′ (olpb2F; SEQ ID NO:3) and 5′-[…] […] […]-3′ (olpb1R; SEQ ID NO:2). The ˜890 bp fragment generated was then cleaved with Sal I and Xba I for insertion into pFastBac™ HTc vector (Life Technologies, Gaithersberg, Md.) between the Sal I and Xba I sites for the generation of the plasmid pFB.LPAAT-β. This plasmid was then transformed into E. coli DH10Bac™ (Life Technologies, Gaithersberg, Md.) for the generation of recombinant Bacmid DNA for transfection in HighFive (Invitrogen, San Diego, Calif.) or SF9 insect cells for the production of recombinant Baculovirus stocks using the protocol described in the Bac-to-Bac® Baculovirus Expression System (Life Technologies, Gaithersberg, Md.), a eukaryotic expression system for generating recombinant baculovirus through site-specific transposition in E. coli. Viral stocks harvested from the transfected cells can then be used to infect fresh insect cells for the subsequence expression of LPAAT-β fusion protein with a poly-histidine tag and a myc-epitope near its N-terminus. The membrane fraction from these Sf9 cells would be the source of LPAAT enzyme.
# B. Preparation of Cell Membranes from Sf9 Cells
# For the preparation of membranes from Sf9 Cells, all steps are performed on ice or at 4° C. Sf9 cell pellets (˜10^8 cells) were thawed and resuspended in 1-2 ml of buffer A (20 mM Hepes, pH 7.5, 1 mM DTT, 1 mM EDTA, 20% w/v glycerol, 1 mM Benzamidine, 1 μg/ml soybean trypsin inhibitor (SBTI), 1 μg/ml pepstatin A) w/o DTT but with 1 mM Pefabloc. The cells were lysed by sonication using a Branson Sonifier at output=2, duty cycle=2, 10 pulses each at 10s. with the tip of small sonicator probe submerged but not touching the walls. DTT was then added to 1 mM from a 1 M stock. The samples were centrifuged at 1500 rpm for 5 min. The low speed supernatant was saved and centrifuged (TLA 100.3 rotor, polycarbonate tubes, 2 ml/tube or 1.5 ml/tube minimum) at 100000×g for 1 hr. The high speed pellet was resuspend in Buffer A with a probe sonicator (10 pulses @ output #2 and duty cycle 20%) as a source of LPAAT enzyme.
# C. Assay of LPAAT-β Activity
# LPAAT-β catalyzes the transfer of an acyl group from a donor such as acyl-CoA to LPA. The transfer of the acyl group from acyl-CoA to LPA leads to the release of free CoA, which can be reacted with the thiol reagent, 5,5′-dithiobis(2-nitrobenzoic acid) (DTNB). The reaction between DTNB and the free sulfhydryl group from CoA generates a yellow-colored product, 3-carboxylato-4-nitrothiophenolate (CNP), that absorbs at 413 nm. LPAAT-β derived from Sf9 cell membrane overexpressing LPAAT-β were resuspended in HEPES saline buffer (20 mM HEPES pH 7.5, 150 mM NaCl), 1 mg/ml BSA and 72 μl aliquots were distributed into 96-well microtiter plates. 8 μl of compound of interest at 200 μM dissolved in 100% DMSO was added into each well. 20 μl of 1 mM 18:1-CoA and 1 mM sn-1-18:1 lysoPA was then added to each well to initiate the reaction and allowed to run at room temperature for 25 min. 100 μl of 1 mM DTNB in 100% ethanol was then added to each well to quench the reaction and for color development. The absorbance at 405 nm, measured using a spectrophotometer plate reader, is proportional to the activity of LPAAT-β in the sample. This colorimetric assay was used for the high throughput screening of LPAAT inhibitors.
row,pIC50,SMILES
1,6.37,"COc1ccc(Cl)cc1-c1nc(N)nc(Nc2ccc(F)cc2)n1 [Example 15, 6-(5-Chloro-2-methoxyphenyl)-N-(4-fluorophenyl)-[1,3,5]triazine-2,4-diamine]"
2,6.85,"CCOc1ccc(Cl)cc1-c1nc(N)nc(Nc2ccc(Cl)cc2)n1 [Example 7, 6-(5-Chloro-2-ethoxyphenyl)-N-(4-Chlorophenyl)-[1,3,5]triazine-2,4-diamine]"
3,5.51,"Cc1ccc(Cl)cc1-c1nc(N)nc(Nc2ccc(COC(=O)CC[C@H](N)C(=O)O)cc2)n1 [Example 63, (S)-2-Amino-pentanedioic acid 5-{4-[4-amino-6-(5-chloro-2-methyl-phenyl)-[1,3,5]triazin-2-ylamino]-benzyl}ester]"
4,6.60,"Cc1ccc(C)c(-c2nc(N)nc(Nc3ccc(Cl)cc3)n2)c1 [Example 14, N-(4-chlorophenyl)-6-(2,5-dimethylphenyl)-[1,3,5]triazine-2,4-diamine]"
5,6.74,"Cc1ccc(Cl)c(-c2nc(N)nc(Nc3ccc(Cl)cc3)n2)c1 [Example 83, 6-(2-chloro-5-methyl-phenyl)-N-(4-chloro-phenyl)-[1,3,5]triazine-2,4-diamine]"
6,7.26,"Cc1ccc(Cl)cc1-c1nc(N)nc(Nc2ccc(Cl)cc2)n1 [Example 9, 6-(5-Chloro-2-methylphenyl)-N-(4-Chlorophenyl)-[1,3,5]triazine-2,4-diamine]"
7,5.22,Cc1ccc(Cl)cc1-c1nc(Nc2ccc(Cl)cc2)nc(N2CCCCC2)n1 [Example 31]
8,6.70,"Cc1ccc(Cl)cc1-c1nc(N)nc(Nc2ccc3c(c2)OCO3)n1 [Example 19, N-Benzo[1.3]dioxol-5-yl-6-(5-chloro-2-methyl-phenyl)-[1,3,5]triazine-2,4-diamine]"
9,6.89,"Cc1ccc(Cl)cc1-c1nc(N)nc(Nc2ccc(CF)cc2)n1 [Example 68, 6-(5-Chloro-2-methyl-phenyl)-N-(4-fluoromethyl-phenyl)-[1,3,5]-triazine-2,4-diamine]"
10,6.74,"Cc1ccc(Cl)cc1-c1nc(N)nc(Nc2ccc(CCl)cc2)n1 [Example 88, N-(4-Chloromethyl-phenyl)-6-(5-chloro-2-methyl-phenyl)-[1,3,5]triazine-2,4-diamine]"
11,6.23,"Cc1ccc(Cl)cc1-c1nc(N)nc(Nc2ccc3c(c2)CCC3)n1 [Example 37, 6-(5-Chloro-2-methyl-phenyl)-N-indan-5-yl-[1,3,5]triazine-2,4-diamine]"
12,6.06,"Cc1ccc(Cl)cc1-c1nc(N)nc(Nc2ccc(N=[N+]=[N-])cc2)n1 [Example 36, 6-(5-Chloro-2-methyl-phenyl)-N-(4-azido-phenyl)-amino-[1,3,5]triazine-2,4-diamine]"
13,6.62,"Cc1ccc(Cl)cc1-c1ncnc(Nc2ccc(Cl)cc2)n1 [Example 33, [6-(5-Chloro-2-methyl-phenyl)-[1,3,5]triazin-4-yl]-(4-chloro-phenyl)-amine]"
14,6.85,"Cc1ccc(Cl)cc1-c1nc(N)nc(Nc2ccc(CCO)cc2)n1 [Example 57, 2-{4-[4-Amino-6-(5-chloro-2-methyl-phenyl)-[1,3,5]triazin-2-ylamino]-phenyl}-ethanol]"
15,6.68,"Cc1ccc(Nc2nc(N)nc(-c3cc(Cl)ccc3Cl)n2)cc1 [Example 49, 6-(2,5-Dichloro-phenyl)-N-p-tolyl-[1,3,5]triazine-2,4-diamine]"
16,7.24,"COc1ccc(Cl)cc1-c1nc(N)nc(Nc2ccc(Cl)cc2)n1 [Example 1, 6-(5-Chloro-2-methoxyphenyl)-N-(4-chlorophenyl)-[1,3,5]triazine-2,4-diamine]"
17,6.89,"Cc1ccc(Cl)cc1-c1nc(Cl)nc(Nc2ccc(N=[N+]=[N-])cc2)n1 [Example 35, [6-(5-Chloro-2-methyl-phenyl)-2-chloro-3-yl-[1,3,5]-triazin-4-yl]-(4-azido-phenyl)-amine]"
18,8.00,"Cc1ccc(Cl)cc1-c1nc(Cl)nc(Nc2ccc([N+](=O)[O-])cc2)n1 [Example 30, [6-(5-Chloro-2-methyl-phenyl)-2-chloro-3-yl-[1,3,5]-triazin-4-yl]-(4-nitro-phenyl)-amine]"
